Assay results from PMC5715595 (British Journal of Pharmacology, 2017).
Read-outs that look alike come from different tables or passages of the source.

How the values were obtained:
hERG channel trafficking = tested on: hERG channel trafficking
Text: Whole‐cell patch clamp conditions were similar to the previous one with the following slight changes (biphasic pulses 2 s at +20 mV and then for 3.2 s at −50 mV applied at a 0.1 Hz).

KV7.1/mink = target: T1, KV7.1/mink (Homo sapiens, UniProt P51787); test: Whole-cell patch clamp on KV7.1/mink (IKs); format: cell-based
T1 construct: expressed in transfected cells
Experimental: (§1) and CiPA Initiative Studies
(§2) =============================================================
(§3) In vitro studies on other ion channels […]
(§4) through NaV1.5, KV4.3, KV7.1/mink, Kir2.1, KV1.5, CaV1.2 and CaV3.2 channels.
(§5) 35-mm dish culture in the conditions mentioned in standard cell culture conditions. Experiments were performed with a cell density enabling isolated cells for patch clamping. Cells were continuously superfused with extracellular medium (1-2 mL∙minute-1) at room temperature.
(§6) D-glucose 10, HEPES 10 and the final pH adjusted to 7.4±0.02 with NaOH for recording NaV1.5, KV4.3, KV7.1/mink, Kir2.1, KV1.5 and CaV3.2 currents. It was (in mM): NaCl 110, KCl 4, BaCl2 20, MgCl2 1, D-glucose 20, HEPES 10 and the final pH adjusted to 7.4 ± 0.02 with NaOH for recording the CaV1.2 current. Compositions of the intracellular solution to fill the pipette are […]
(§7) Composition of intracellular solutions used to fill pipette to record currents through NaV1.5, KV4.3, KV7.1/mink, Kir2.1, KV1.5, CaV1.2 and CaV3.2 channels
(§8) Solution to fill the pipette (mM)
(§9) Creatine-phospho kinase 50 U∙mL-1
(§10) After formation of a Gigaohm seal between the patch electrodes and individual cells (pipette resistance range: 2.0 MΩ - 7.0 MΩ; seal resistance range: > 1 GΩ) the cell membrane across the pipette tip was ruptured to assure electrical access to the cell interior (whole-cell patch-configuration). In case the quality of the seal was poor, the process of seal formation was repeated with a different cell and a new pipette. As soon as a stable seal was established outward tail currents were measured upon pulses described in the Table S2. If current density was judged to be too low for measurement, another cell was recorded. […]
(§11) voltage stimulation protocol indicated in the next table continuously run until the steady-state level of block was reached.
(§12) Stimulation conditions used to record currents through NaV1.5, KV4.3, KV7.1/mink, Kir2.1, KV1.5, CaV1.2 and CaV3.2 channels
(§13) Ion channel Holding potential Pulse / duration Frequency Reference compound […]
(§14) (resting / fast / slow sweeps at one (10 mM) inactivated concentration)

KV1.5 = target: T2, KV1.5 (Homo sapiens, UniProt P22460); test: Whole-cell patch clamp on KV1.5 (IKur); format: cell-based
T2 construct: expressed in transfected cells
T2 sequence (P22460 whole entry): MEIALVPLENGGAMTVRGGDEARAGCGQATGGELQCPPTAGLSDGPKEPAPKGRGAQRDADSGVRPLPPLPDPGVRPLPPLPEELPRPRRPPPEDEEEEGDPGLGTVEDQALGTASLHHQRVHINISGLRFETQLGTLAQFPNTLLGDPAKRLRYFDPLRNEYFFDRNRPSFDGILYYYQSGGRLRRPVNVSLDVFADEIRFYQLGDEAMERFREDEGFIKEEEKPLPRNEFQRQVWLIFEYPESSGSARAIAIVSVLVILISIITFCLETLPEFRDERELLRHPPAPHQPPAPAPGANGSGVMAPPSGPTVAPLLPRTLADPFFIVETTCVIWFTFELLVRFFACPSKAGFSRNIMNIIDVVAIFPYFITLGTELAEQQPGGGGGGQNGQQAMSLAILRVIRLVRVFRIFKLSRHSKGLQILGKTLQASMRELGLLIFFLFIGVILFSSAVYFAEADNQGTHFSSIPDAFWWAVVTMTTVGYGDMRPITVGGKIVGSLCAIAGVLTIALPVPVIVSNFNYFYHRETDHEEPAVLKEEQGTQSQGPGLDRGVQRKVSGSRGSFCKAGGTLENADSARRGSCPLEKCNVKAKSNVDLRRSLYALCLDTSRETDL
Experimental: as §1, §2, §3, §4, §5, §6, §7, §8, §9, §10, §11, §12, §13, §14

KV4.3 = target: T3, KV4.3 (Homo sapiens, UniProt Q9UK17); test: Whole-cell patch clamp on KV4.3 (Ito); format: cell-based
T3 construct: expressed in transfected cells
T3 sequence (Q9UK17 1-655): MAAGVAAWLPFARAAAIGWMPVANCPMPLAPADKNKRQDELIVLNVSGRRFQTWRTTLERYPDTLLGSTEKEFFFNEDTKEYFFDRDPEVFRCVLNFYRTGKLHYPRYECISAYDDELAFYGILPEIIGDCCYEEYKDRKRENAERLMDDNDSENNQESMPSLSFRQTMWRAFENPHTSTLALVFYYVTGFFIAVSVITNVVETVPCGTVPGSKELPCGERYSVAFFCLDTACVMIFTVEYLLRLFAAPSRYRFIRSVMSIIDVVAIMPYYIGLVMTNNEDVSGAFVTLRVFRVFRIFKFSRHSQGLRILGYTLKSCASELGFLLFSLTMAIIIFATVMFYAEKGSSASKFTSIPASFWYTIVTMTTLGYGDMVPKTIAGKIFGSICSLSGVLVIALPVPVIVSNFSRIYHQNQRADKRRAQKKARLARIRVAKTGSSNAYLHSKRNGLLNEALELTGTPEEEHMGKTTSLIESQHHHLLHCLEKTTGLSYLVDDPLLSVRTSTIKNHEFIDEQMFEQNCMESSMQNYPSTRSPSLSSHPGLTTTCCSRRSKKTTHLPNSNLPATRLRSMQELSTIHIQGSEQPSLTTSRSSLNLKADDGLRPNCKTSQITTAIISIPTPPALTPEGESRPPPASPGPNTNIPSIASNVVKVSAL
Experimental: as §1, §2, §3, §4, §5, §6, §7, §8, §9, §10, §11, §12, §13, §14

CaV3.2 = target: T4, CaV3.2 (Homo sapiens, UniProt O95180); test: Whole-cell patch clamp on CaV3.2 (ICaT); format: cell-based
T4 construct: expressed in transfected cells
T4 sequence (O95180 whole entry): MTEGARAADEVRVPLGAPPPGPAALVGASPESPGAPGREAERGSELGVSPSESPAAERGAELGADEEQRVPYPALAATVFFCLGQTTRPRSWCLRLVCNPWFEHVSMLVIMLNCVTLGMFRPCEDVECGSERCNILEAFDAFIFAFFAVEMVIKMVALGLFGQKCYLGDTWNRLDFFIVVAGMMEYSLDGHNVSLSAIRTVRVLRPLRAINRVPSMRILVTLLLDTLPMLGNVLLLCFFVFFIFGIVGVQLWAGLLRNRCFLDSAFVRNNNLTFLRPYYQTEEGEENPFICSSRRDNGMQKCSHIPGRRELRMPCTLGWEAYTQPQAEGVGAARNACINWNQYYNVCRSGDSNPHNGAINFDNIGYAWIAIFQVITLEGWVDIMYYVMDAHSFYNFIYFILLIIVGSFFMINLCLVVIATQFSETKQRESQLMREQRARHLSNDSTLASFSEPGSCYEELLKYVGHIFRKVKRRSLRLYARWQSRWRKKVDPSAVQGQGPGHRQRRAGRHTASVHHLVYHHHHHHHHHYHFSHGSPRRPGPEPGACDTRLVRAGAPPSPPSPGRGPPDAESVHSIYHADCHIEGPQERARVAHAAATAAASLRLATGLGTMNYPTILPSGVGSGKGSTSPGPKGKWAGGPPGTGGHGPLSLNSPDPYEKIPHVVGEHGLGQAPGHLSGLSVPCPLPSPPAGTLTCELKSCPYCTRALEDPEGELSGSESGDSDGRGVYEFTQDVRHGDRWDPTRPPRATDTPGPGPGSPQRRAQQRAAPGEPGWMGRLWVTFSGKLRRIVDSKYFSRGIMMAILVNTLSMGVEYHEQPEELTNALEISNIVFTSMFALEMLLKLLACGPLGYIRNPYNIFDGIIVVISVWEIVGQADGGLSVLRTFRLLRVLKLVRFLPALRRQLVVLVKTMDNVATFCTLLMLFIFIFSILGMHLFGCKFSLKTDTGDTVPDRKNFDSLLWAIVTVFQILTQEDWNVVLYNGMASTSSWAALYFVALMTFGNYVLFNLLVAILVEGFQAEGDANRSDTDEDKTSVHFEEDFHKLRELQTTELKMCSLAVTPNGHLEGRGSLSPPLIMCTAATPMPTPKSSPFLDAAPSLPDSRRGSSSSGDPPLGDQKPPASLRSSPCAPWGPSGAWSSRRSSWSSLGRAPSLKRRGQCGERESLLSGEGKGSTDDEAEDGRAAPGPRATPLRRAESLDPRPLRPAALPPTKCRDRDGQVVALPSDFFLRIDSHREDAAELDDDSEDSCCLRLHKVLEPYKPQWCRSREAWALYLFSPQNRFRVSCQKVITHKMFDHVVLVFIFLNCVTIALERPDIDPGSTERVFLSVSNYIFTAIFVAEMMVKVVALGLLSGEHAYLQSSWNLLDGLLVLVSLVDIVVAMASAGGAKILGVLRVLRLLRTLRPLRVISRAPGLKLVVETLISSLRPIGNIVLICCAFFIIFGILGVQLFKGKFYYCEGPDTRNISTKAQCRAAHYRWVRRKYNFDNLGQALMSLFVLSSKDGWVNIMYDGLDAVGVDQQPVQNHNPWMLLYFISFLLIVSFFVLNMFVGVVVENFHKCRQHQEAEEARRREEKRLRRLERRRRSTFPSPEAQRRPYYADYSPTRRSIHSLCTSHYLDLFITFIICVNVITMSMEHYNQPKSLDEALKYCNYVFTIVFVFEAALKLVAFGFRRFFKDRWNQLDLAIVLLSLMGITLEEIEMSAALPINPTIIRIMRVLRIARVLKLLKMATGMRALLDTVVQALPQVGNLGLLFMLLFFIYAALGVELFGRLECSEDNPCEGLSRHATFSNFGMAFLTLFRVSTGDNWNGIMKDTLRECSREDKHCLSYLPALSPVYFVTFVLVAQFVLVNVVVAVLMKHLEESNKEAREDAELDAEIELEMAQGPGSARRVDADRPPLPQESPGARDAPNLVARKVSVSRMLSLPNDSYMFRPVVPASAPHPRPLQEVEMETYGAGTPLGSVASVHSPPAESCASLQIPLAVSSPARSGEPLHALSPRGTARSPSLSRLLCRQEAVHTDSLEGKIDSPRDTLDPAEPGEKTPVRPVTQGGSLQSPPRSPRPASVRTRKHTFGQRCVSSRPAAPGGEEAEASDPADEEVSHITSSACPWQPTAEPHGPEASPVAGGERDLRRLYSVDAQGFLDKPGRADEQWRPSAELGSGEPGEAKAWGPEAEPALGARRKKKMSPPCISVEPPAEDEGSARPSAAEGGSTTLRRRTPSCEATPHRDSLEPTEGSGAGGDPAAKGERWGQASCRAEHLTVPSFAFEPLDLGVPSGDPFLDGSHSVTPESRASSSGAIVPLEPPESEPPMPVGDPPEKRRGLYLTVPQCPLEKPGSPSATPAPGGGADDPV
Experimental: as §1, §2, §3, §4, §5, §6, §7, §8, §9, §10, §11, §12, §13, §14

Kir2.1 = target: T5, Kir2.1 (Homo sapiens, UniProt P63252); test: Whole-cell patch clamp on Kir2.1 (IK1); format: cell-based
T5 construct: expressed in transfected cells
T5 sequence (P63252 1-427): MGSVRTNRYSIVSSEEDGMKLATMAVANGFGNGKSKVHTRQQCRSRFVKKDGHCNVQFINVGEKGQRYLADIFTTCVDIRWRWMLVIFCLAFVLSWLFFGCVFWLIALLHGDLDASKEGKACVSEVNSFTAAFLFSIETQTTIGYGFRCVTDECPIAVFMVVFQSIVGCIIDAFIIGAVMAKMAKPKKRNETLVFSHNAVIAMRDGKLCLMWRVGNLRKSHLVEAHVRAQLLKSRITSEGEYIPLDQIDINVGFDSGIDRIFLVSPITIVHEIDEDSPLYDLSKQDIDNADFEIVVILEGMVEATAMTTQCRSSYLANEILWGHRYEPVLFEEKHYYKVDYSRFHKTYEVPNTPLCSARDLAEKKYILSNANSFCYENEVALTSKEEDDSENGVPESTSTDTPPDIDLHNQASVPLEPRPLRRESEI
Experimental: as §1, §2, §3, §4, §5, §6, §7, §8, §9, §10, §11, §12, §13, §14

α2A‐adrenoceptor = α2A‐adrenoceptor (Homo sapiens, UniProt P08913); test: Affinity at α2A-adrenoceptor; format: binding
Sequence of α2A‐adrenoceptor (P08913 whole entry): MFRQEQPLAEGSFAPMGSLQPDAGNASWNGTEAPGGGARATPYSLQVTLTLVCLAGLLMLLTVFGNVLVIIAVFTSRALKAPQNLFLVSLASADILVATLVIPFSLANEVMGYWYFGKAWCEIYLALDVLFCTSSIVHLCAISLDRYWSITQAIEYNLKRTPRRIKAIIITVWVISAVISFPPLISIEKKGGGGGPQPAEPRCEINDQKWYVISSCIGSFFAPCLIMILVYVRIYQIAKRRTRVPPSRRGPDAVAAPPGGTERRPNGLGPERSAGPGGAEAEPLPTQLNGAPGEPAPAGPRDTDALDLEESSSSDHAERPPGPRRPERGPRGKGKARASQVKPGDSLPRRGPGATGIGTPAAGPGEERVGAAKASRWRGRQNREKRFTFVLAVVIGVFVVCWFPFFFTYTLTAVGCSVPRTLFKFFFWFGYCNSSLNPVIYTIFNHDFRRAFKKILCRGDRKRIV

α2B‐adrenoceptor = α2B‐adrenoceptor (Homo sapiens, UniProt P18089); test: Affinity at α2B-adrenoceptor; format: binding
Sequence of α2B‐adrenoceptor (P18089 whole entry): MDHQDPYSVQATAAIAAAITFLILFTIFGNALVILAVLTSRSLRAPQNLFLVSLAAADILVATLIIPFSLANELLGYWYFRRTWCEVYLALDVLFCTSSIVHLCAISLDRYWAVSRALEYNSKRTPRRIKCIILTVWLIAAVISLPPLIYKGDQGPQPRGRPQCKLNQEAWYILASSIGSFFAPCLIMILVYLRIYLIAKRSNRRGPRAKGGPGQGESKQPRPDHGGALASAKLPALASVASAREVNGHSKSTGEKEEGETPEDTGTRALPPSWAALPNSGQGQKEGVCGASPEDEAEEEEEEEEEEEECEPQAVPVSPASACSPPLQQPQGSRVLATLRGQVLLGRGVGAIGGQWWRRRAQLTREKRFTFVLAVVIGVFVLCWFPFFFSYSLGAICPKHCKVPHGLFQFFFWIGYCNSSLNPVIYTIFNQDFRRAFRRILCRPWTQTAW

[1] = in house data
[2] = human, 40 mg daily dosing; ref Shah et al., 2016; cited from earlier work
humans = conditions: human, ref Shah et al., 2016, cited from earlier work

With `Cl.Clc1ccc(CCCOCCCN2CCCCC2)cc1` [pitolisant, 1‐{3‐[3‐(4‐chlorophenyl)propoxy]propyl}piperidine, hydrochloride] as the compound, how does the “effect on hERG current after long-term exposure” value (hERG channel trafficking; 1 μM over 24 h, after washout) read?
Its value is “no significant effect on hERG current”.

And the “change in concentration in the cell culture medium over 24 h of exposure” value (hERG channel trafficking; LC-mass spectrometry)?
The value was “no significant changes”.

And the “Fitted IC50” value (KV7.1/mink; KV7.1/mink IKs, Hill curve fit with Hill coefficient of one)?
Its value is “No effect”.

What about the IC50 (KV7.1/mink; KV7.1/mink, IKs) of the same compound?
Its IC50 is over 10 µM.

What about the IC50 (KV1.5; KV1.5 IKur, Hill curve fit with Hill coefficient of one, read-out: Fitted IC50) of the same compound?
The IC50 was 13.8 µM.

What about the IC50 (KV1.5; Pitolisant IC50, KV1.5, IKur) of the same compound?
The IC50 was at least 10 µM.

And the IC50 (KV4.3; KV4.3 Ito, Hill curve fit with Hill coefficient of one, read-out: Fitted IC50)?
Its IC50 is 11.4 µM.

What about the IC50 (KV4.3; Pitolisant IC50, KV4.3, Ito) of the same compound?
The IC50 was about 10 µM.

What about the IC50 (CaV3.2; CaV3.2 ICaT, Hill curve fit with Hill coefficient of one, read-out: Fitted IC50) of the same compound?
Its IC50 is 25.7 µM.

What about the IC50 (CaV3.2; Pitolisant IC50, CaV3.2, ICaT) of the same compound?
Its IC50 is at least 10 µM.

And the IC50 (Kir2.1; Kir2.1 IK1, Hill curve fit with Hill coefficient of one, read-out: Fitted IC50)?
The IC50 was 16.5 µM.

And the IC50 (Kir2.1; Pitolisant IC50, Kir2.1, IK1)?
Its IC50 is at least 10 µM.

What about the Ki (α2A‐adrenoceptor) of the same compound?
The Ki was 2900 nM.

And the Ki (α2B‐adrenoceptor)?
The Ki was 4.3 µM.

And the protein-binding [1]?
Its protein-binding is 96%.

And the “highest clinically relevant exposure” value [2]?
Its value is 72 ng/mL.

And the “maximum mean (90% CI) placebo-corrected increase in QTcF interval from baseline (ΔΔQTcF)” value (humans; 40 mg pitolisant hydrochloride, TQT study)?
The value was 3.29 (0.35, 6.23) ms.

And the Cmax (humans; 40 mg)?
The Cmax was 53 ± 27 ng/mL.

And the “maximum mean (90% CI) placebo-corrected increase in QTcF interval from baseline (ΔΔQTcF)” value (humans; 120 mg pitolisant hydrochloride, TQT study)?
The value was 5.27 (2.35, 8.20) ms.

And the Cmax (humans; 120 mg)?
Its Cmax is 164 ± 63 ng/mL.

And the “maximum mean (90% CI) placebo-corrected increase in QTcF interval from baseline (ΔΔQTcF)” value (humans; 200 mg pitolisant hydrochloride, SAD study)?
The value was 13.3 (8.1, 18.5) ms.

And the “maximum mean (90% CI) placebo-corrected increase in QTcF interval from baseline (ΔΔQTcF)” value (humans; 240 mg pitolisant hydrochloride, SAD study)?
The value was 9.9 (4.7, 15.1) ms.

And the Cmax (humans; 240 mg)?
The Cmax was 282 ± 47 ng/mL.
